Assays:
[1] = target: T1, CYP2D6 (Homo sapiens, UniProt P10635); experiment: CYP inhibition assay in human liver microsome; format: in vitro ADME; details: human liver microsomes, probe dextromethorphan, 10µM test compound, dextromethorphan substrate, <0: not or weak inhibitor, read-out: CYP 2D6 inhibition %@10µM
T1 construct: tissue BD-Gentest 452117; host or cells: human liver microsomes
Procedure: This is a high throughput screening assay used for assessment of reversible inhibition of CYP2D6 activity of test compounds in human liver microsome (HLM) in early discovery stage. Table 4. Chemicals and materials used in the CYP inhibition assay
10 mM DMSO stock solutions of test compounds were diluted in DMSO to generate 2 mM intermediate stock solution. 250 nL of intermediate stock solution were transferred in duplicate into 3 separate 384 well microtitre plates (assay-ready plates). A mixture of HLM and each substrate was made up. 45 µL of HLM substrate mix was then transferred to each well of an assay ready plate and mixed. The negative (solvent) and positive control (standard inhibitor for CYP 2D6) were included in each assay ready plate. The assay ready plate was warmed to 37 °C in an incubator over 10 minutes. 5 µL pre-warmed NADPH regenerating system was added to each incubation well to start the reaction. Final incubation volume was 50 µL. The assay plate then was placed back in the 37 °C incubator. After 10-minute incubation, incubates were quenched by addition of 50 µL 100% acetonitrile containing internal standards (20 ng/mL D3-Dextrorphan). The supernatants were collected for RapidFire/MS/MS analysis.
RapidFire online solid phase extraction/sample injection system (Agilent) coupled with API4000 triple quadrupole mass spectrometer (AB Sciex) were used for sample analysis. The mobile phase composed of acetonitrile and water supplemented with 0.1% formic acid. A C4 solid phase extraction cartridge is used for sample separation. MS detection is achieved in positive ion MRM mode.
Peak areas for substrate, metabolite and internal standard are determined using the RapidFire integrator software (version 3.6.12009.12296). Peak area ratios (PAR) of metabolite and internal standard (stable-labelled metabolite) are then calculated. The measurement window for each experiment is then defined: • PAR (0% activity)= average PAR for all incubations containing concentrated inhibitor; • Par (100% activity)= average PAR for all incubations containing no inhibitor (DMSO controls); • % Activity (test inhibitor) • =[PAR(test inhibitor)-PAR(0% activity)]/[PAR(100% activity)-PAR(0% activity)]; • % Inhibition (test inhibitor)=100-% Activity (test inhibitor).

[2] = target: T2, hTLR7 (Homo sapiens, UniProt Q9NYK1); experiment: HEK293-Blue-hTLR-7 cells assay (SEAP reporter, R848 stimulation); format: cell-based; parameters: host or cells: HEK293 (HEK-Blue); details: HEK293-Blue-hTLR7 cells, R848, 20 hrs; read-out: HEK/hTLR7 IC50
T2 sequence (Q9NYK1 27-1049): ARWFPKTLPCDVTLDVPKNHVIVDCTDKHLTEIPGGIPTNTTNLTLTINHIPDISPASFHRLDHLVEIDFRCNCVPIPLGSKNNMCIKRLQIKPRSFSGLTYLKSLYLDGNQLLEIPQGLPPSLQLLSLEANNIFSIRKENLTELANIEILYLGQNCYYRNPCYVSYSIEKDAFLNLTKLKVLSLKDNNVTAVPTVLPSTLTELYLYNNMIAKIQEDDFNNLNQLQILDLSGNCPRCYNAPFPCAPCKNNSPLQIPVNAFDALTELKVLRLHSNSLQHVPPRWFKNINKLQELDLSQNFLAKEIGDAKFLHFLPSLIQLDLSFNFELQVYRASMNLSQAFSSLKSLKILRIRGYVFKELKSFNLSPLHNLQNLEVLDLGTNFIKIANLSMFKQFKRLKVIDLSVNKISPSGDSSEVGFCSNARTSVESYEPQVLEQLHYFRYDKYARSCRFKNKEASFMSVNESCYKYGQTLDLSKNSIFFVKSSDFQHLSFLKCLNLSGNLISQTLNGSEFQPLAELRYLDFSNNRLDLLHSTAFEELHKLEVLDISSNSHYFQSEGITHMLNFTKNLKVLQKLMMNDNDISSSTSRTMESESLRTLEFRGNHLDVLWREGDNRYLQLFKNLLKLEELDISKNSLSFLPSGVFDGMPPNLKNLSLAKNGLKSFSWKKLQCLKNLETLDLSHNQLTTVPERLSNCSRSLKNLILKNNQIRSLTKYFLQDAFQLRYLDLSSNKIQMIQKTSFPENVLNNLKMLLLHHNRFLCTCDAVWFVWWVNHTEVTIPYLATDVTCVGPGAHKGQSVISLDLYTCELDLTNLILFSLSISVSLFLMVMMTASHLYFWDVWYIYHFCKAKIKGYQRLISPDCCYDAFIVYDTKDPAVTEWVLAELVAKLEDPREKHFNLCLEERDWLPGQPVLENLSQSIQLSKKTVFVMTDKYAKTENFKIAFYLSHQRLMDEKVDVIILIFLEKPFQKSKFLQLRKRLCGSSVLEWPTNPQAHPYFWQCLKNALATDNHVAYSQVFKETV
Description: A stable HEK293-Blue-hTLR-7 cell line was purchased from InvivoGen (Cat.#: hkb-htlr7, San Diego, California, USA). These cells were originally designed for studying the stimulation of human TLR7 by monitoring the activation of NF-κB. A SEAP (secreted embryonic alkaline phosphatase) reporter gene was placed under the control of the IFN-β minimal promoter fused to five NF-κB and AP-1-binding sites. The SEAP was induced by activating NF-xB and AP-1 via stimulating HEK-Blue hTT,R7 cells with TLR7 ligands. Therefore, the reporter expression was declined by TLR7 antagonist under the stimulation of a ligand, such as R848 (Resiquimod), for incubation of 20 hrs. The cell culture supernatant SEAP reporter activity was determined using QUANTI-Blue™ kit (Cat.#: rep-qb1, Invivogen, San Diego, Ca, USA) at a wavelength of 640 nm, a detection medium that turns purple or blue in the presence of alkaline phosphatase.
HEK293-Blue-hTLR7 cells were incubated at a density of 250,000-450,000 cells/mL in a volume of 170 µL in a 96-well plate in Dulbecco's Modified Eagle's medium (DMEM) containing 4.5 g/L glucose, 50 U/mL penicillin, […], […], 2 mM L-glutamine, 10% (v/v) heat-inactivated fetal bovine serum with addition of 20 µL test compound in a serial dilution in the presence of final DMSO at 1% and 10 µL of 20uM R848 in above DMEM, perform incubation under 37 °C in a CO2 incubator for 20 hrs. Then 20 µL of the supernatant from each well was incubated with 180 µL Quanti-blue substrate solution at 37 °C for 2 hrs and the absorbance was read at 620-655 nm using a spectrophotometer. The signaling pathway that TLR7 activation leads to downstream NF-xB activation has been widely accepted, and therefore similar reporter assay was modified for evaluating TLR7 antagonist.

T1 sequence (P10635 whole entry): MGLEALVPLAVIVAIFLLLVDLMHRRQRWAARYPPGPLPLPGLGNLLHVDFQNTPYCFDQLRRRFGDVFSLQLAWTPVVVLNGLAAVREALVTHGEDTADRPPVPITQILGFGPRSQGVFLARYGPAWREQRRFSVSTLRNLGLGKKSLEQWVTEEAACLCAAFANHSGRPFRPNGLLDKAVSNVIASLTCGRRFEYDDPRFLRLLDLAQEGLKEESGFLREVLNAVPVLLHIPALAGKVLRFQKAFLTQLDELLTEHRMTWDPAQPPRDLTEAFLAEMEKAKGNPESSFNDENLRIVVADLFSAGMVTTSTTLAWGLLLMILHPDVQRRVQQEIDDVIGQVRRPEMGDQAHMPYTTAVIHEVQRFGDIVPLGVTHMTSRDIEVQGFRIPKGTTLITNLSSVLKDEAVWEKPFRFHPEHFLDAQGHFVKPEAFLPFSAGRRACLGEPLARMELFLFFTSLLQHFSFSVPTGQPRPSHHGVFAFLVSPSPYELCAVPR

inhibition at 10 min, 10 µM [1] [%] | IC50 [2] [nM] | Structure (SMILES)
3.5 | 59 | C[C@@H]1CN(c2ccc(C#N)c3ncccc23)C[C@H](CN2CCN(c3cnc4c(c3)CCNC4)CC2)O1 [Example 23, 5-[(2R,6S)-2-methyl-6-[[4-(5,6,7,8-tetrahydro-1,7-naphthyridin-3-yl)piperazin-1-yl]methyl]morpholin-4-yl]quinoline-8-carbonitrile]
9 | 9 | C[C@@H]1CN(c2ccc(C#N)c3ncccc23)C[C@H](CN2CC3(C2)CN(c2ccc4c(n2)CNCC4)CCO3)O1 [Example 45, 5-[(2R,6S)-2-methyl-6-[[8-(5,6,7,8-tetrahydro-1,7-naphthyridin-2-yl)-5-oxa-2,8-diazaspiro[3.5]nonan-2-yl]methyl]morpholin-4-yl]quinoline-8-carbonitrile]
-5 | 4 | C[C@@H]1CN(c2ccc(C#N)c3ncccc23)C[C@H](CN2CCN(c3cccc4c3CNC4)CC2)O1 [Example 2, 5-[(2S,6R)-2-[(4-isoindolin-4-ylpiperazin-1-yl)methyl]-6-methyl-morpholin-4-yl] quinoline-8-carbonitrile]
10.5 | 4 | C[C@@H]1CN(c2ccc(C#N)c3ncccc23)C[C@H](CN2CC3(C2)CN(c2cnc4c(n2)CCNC4)CCO3)O1 [Example 50, 5-[(2R,6S)-2-methyl-6-[[8-(5,6,7,8-tetrahydropyrido[3,4-b]pyrazin-2-yl)-5-oxa-2,8-diazaspiro [3.5]nonan-2-yl]methyl]morpholin-4-yl] quinoline-8-carbonitrile]
-6 | 11 | C[C@@H]1CN(c2ccc(C#N)c3ncccc23)C[C@H](CN2CCN(c3ccc4c(n3)CCNC4)CC2)O1 [Example 14, 5-[(2R,6S)-2-methyl-6-[[4-(5,6,7,8-tetrahydro-1,6-naphthyridin-2-yl)piperazin-1-yl]methyl]morpholin-4-yl]quinoline-8-carbonitrile]
4.5 | 11 | C[C@@H]1CN(c2ccc(C#N)c3ncccc23)C[C@H](CN2CCN(c3cnc4c(n3)CCNC4)CC2)O1 [Example 17, 5-[(2R,6S)-2-methyl-6-[[4-(5,6,7,8-tetrahydropyrido[3,4-b]pyrazin-2-yl)piperazin-1-yl]methyl]morpholin-4-yl]quinoline-8-carbonitrile]
5 | < 3 | C[C@@H]1CN(c2ccc(C#N)c3ncccc23)C[C@H](CN2C[C@@H]3[C@@H](C2)OCCN3c2cnc3c(c2)CCNC3)O1 [Example 52, 5-[(2S,6R)-2-[[(4aR,7aR)-4-(5,6,7,8-tetrahydro-1,7-naphthyridin-3-yl)-2,3,4a,5,7,7a-hexahydropyrrolo[3,4-b][1,4]oxazin-6-yl]methyl]-6-methylmorpholin-4-yl]quinoline-8-carbonitrile]
13 | 9 | C[C@@H]1CN(c2ccc(C#N)c3ncccc23)C[C@H](CN2CCN(c3cc4c(cn3)CNC4)CC2)O1 [Example 18, 5-[(2S,6R)-2-[[4-(2,3-dihydro-1H-pyrrolo[3,4-c]pyridin-6-yl)piperazin-1-yl]methyl]-6-methyl-morpholin-4-yl] quinoline-8-carbonitrile]
8 | 7 | C[C@@H]1CN(c2ccc(C#N)c3ncccc23)C[C@H](CN2CCN(c3cnc4c(n3)CNCC4)CC2)O1 [Example 40, 5-[(2R,6S)-2-methyl-6-[[4-(5,6,7,8-tetrahydropyrido[3,4-b]pyrazin-3-yl)piperazin-1-yl]methyl]morpholin-4-yl]quinoline-8-carbonitrile]
-21.5 | 12 | C[C@@H]1CN(c2ccc(C#N)c3ncccc23)C[C@H](CN2CC3(C2)CN(c2cnc4c(c2)CNCC4)CCO3)O1 [Example 47, 5-[(2R,6S)-2-methyl-6-[[8-(5,6,7,8-tetrahydro-1,6-naphthyridin-3-yl)-5-oxa-2,8-diazaspiro[3.5]nonan-2-yl]methyl]morpholin-4-yl]quinoline-8-carbonitrile]
– | 130 | C[C@@H]1CN(c2ccc(C#N)c3ncccc23)C[C@H](CNC2CN(c3cnc4c(c3)CNC4)C2)O1 [Example 43, 5-[(2S,6R)-2-[[[1-(6,7-dihydro-5H-pyrrolo[3,4-b]pyridin-3-yl)azetidin-3-yl]amino]methyl]-6-methyl-morpholin-4-yl]quinoline-8-carbonitrile]
– | 13 | C[C@@H]1CN(c2ccc(C#N)c3ncccc23)C[C@H](CN2CCN(c3cnc4c(c3)CN[C@H]4C)CC2)O1 (single isomer, unassigned) [Example 67]
– | 11 | C[C@@H]1Cc2cnc(N3CCN(C[C@H]4CN(c5ccc(C#N)c6nccnc56)C[C@@H](C)O4)CC3)cc2CN1 (single isomer, unassigned) [Example 82]
– | 11 | C[C@@H]1CN(c2ccc(C#N)c3ncccc23)C[C@H](CN2CCN(c3ccc4c(n3)CN[C@H]4C)CC2)O1 (single isomer, unassigned) [Example 63]
– | 11 | Cc1nc2c(nc1N1CCN(C[C@H]3CN(c4ccc(C#N)c5ncccc45)C[C@@H](C)O3)CC1)CCNC2 [Example 60, 5-[(2R,6S)-2-methyl-6-[[4-(3-methyl-5,6,7,8-tetrahydropyrido[3,4-b]pyrazin-2-yl)piperazin-1-yl]methyl]morpholin-4-yl]quinoline-8-carbonitrile]

Source: patent EP3807270B1, “NOVEL HETEROARYL HETEROCYCLYL COMPOUNDS FOR THE TREATMENT OF AUTOIMMUNE DISEASE” (F. Hoffmann-La Roche AG, priority 2018, dated 2019)
